Experimental data taken from US12685746B2, “Cyclodextrin derivatives in the treatment or prevention of lysosomal neurodegenerative diseases” (CYCLOLAB CYCLODEXTRIN RESEARCH AND DEVELOPMENT LABORATORY …, priority 2020, dated 2026).
“Also recorded” adds a separate entry of the source.

Tests used:
[1] = test system: 5 dpf Danio rerio larvae treated with U18666A; assay: Mobility testing of U18666A-treated zebrafish larvae (DanioVision, distance moved); assay type: in vivo; conditions: U18666A 1 microg/ml 16 hours, then CD 24 hours (0.5-5%); result in words, values only in FIG. 1
Method: Danio rerio larvae (strain AB, Casper) 5 days post fertilization (dpf) at day of testing were treated with U18666A dissolved in standard E3 medium. Reversal of U18666A (1 microg/ml) effects on overall activity of 5 dpf Danio rerio larvae by different CDs at different concentrations (0.5-5%) were tested. Larvae were pretreated with U18666A for 16 hours and thereafter treated with CD for 24 hours. Statistical analyses were performed for the individual experiments with two way ANOVA's followed by Tukey post hoc tests (** p<0.01). CDs were dissolved in standard E3 medium.
DanioVision Observation Chamber which is a complete system, designed for the high-throughput testing of zebrafish larvae in 48-wells plates. It includes an observation chamber and renowned EthoVision XT video tracking software to quantify distance moved by the animals. The results are graphically represented (distance moved—in arbritrary unit) in FIG. 1.

[2] = Phase solubility study: interaction of cyclodextrins with unesterified cholesterol; assay type: physicochemical; conditions: 24 hours equilibration at 25±3° C.
Method: Phase solubility studies were performed in 5 ml solutions at room temperature, wherein cyclodextrin solutions of discrete concentrations were weighed and excess amount of cholesterol was added. After 24 hours equilibration time at 25±3° C. (using magnetic stirrer at 500 RPM), the dissolved equilibrium cholesterol concentrations were determined by HPLC after filtration through a syringe filter having polyethylene sulfone membrane of 0.45 micron nominal pore size. The experimentally determined cholesterol concentrations in the presence of different concentrations of HPBCD, Sualfadex sodium, Subetadex sodium and Sugammadex sodium are listed in Table 3.

[3] = test system: zebrafish model for Niemann Pick type C1 (U18666A administration); assay: Filipin staining of five day old zebrafish larvae pretreated with U18666A (cholesterol accumulation in the brain); assay type: in vivo, Danio rerio; conditions: for Reduction in U18666A induced cholesterol accumulation in the brain: result in words; for Heavy staining (number of larvae) / Light staining (number of larvae) / No staining (number of larvae): U18666A pretreated 5 dpf larvae; for No staining (number of larvae): fluorescence in head region; for Different from placebo: X2-test vs U18666A-placebo
Method: Several cyclodextrin derivatives were evaluated in a zebrafish model for Niemann Pick type C1 (U18666A administration). Cholesterol accumulation in the brain was quantified by filipin staining of Danio rerio Casper (albino strain) larvae. Results were compared with the reference compound Hydroxypropyl-β-cyclodextrin (HPBCD).
In this study the best performing Cyclodextrins were as follows: Heptakis(2,6-di-O-methyl)-beta cyclodextrin, Octakis(2,3,6-tri-O-methyl)-gamma cyclodextrin, Sualfadex sodium, Subetadex sodium Sugammadex sodium. Filipin staining of five day old zebrafish larvae (Danio rerio, Casper strain) pretreated with U18666A were studied.
Fertilized eggs were hatched and kept in an incubator at 28° C.
CDs were administered from Stock solutions (0.1%) in standard E3 medium. Preparation of E3 medium was as follows:
The stock solutions were diluted with E3. Compounds were administered in the swimming water. Each concentration was tested in 25 larvae.
Experimental compounds were tested at a 0.05% concentration. As reference Hydroxypropyl-β-cyclodextrin (Sigma) was tested at a 0.5% concentration.
Treated 5 dpf Casper larvae were fixed for 30 minutes in 4% paraformaldehyde. After washing (2 times) with PBS, they were stained for 30 minutes with 50 μg/mL filipin (Sigma) in PBS solution. Then larvae were washed (with PBS) twice.
Whole larvae were embedded and images were captured on a Dino-Lite Digital USB microscope for GFP/FITC recordings (AM4115T4). Images were evaluated by an independent assessor, unaware of the treatments. The assessor scored the fluorescence in the head region as none, light or heavy.
Data were analysed by means of X2-tests. All conditions were compared to the U18666A—placebo treatment group.
Fluorescence was measured as an index for the amount of filipin staining. The higher the filipin staining the more cholesterol accumulation there is in the brain. Individual larvae were scored (by a blinded assessor) as either heavy coloured, light coloured or not coloured at all.

[4] = literature studies; cited from earlier work
[5] = dose tested 0.05% in swimming water
[6] = dose tested 0.5% in swimming water

Row | Compound | Dissolved cholesterol concentration ([2]; CD concentration 5 w/w %) | Dissolved cholesterol concentration ([2]; CD concentration 10 w/w %) | Dissolved cholesterol concentration ([2]; CD concentration 15 w/w %) | Motoric activity of the test animals [1] | Reduction in U18666A induced cholesterol accumulation in the brain ([3]; 0.05%, sodium salt) | Heavy staining (number of larvae) [3, 5] | Light staining (number of larvae) [3, 5] | No staining (number of larvae) [3, 5] | Different from placebo ([3]; dose tested 0.05%) | Ototoxicity [4] | Reduction in U18666A induced cholesterol accumulation in the brain ([3]; 0.5%) | Heavy staining (number of larvae) [3, 6] | Light staining (number of larvae) [3, 6] | No staining (number of larvae) [3, 6] | Different from placebo ([3]; dose tested 0.5%) | Reduction in U18666A induced cholesterol accumulation in the brain ([3]; 0.05%)
1 | CC(O)COC[C@H]1O[C@@H]2O[C@H]3[C@H](O)[C@@H](O)[C@@H](O[C@H]4[C@H](O)[C@@H](O)[C@@H](O[C@H]5[C@H](O)[C@@H](O)[C@@H](O[C@H]6[C@H](O)[C@@H](O)[C@@H](O[C@H]7[C@H](O)[C@@H](O)[C@@H](O[C@H]8[C@H](O)[C@@H](O)[C@@H](O[C@H]1[C@H](O)[C@H]2O)O[C@@H]8COCC(C)O)O[C@@H]7COCC(C)O)O[C@@H]6COCC(C)O)O[C@@H]5COCC(C)O)O[C@@H]4COCC(C)O)O[C@@H]3COCC(C)O (stereo partly drawn) [HPBCD, Hydroxypropyl-β-cyclodextrin] | 0.28 mg/mL | 0.98 mg/mL | 2.06 mg/mL |  |  |  |  |  |  | ototoxic | significantly reduced | 9 | 13 | 2 | * (* p<0.05) | 
2 | COC[C@H]1O[C@@H]2O[C@H]3[C@H](O)[C@@H](OC)[C@@H](O[C@H]4[C@H](O)[C@@H](OC)[C@@H](O[C@H]5[C@H](O)[C@@H](OC)[C@@H](O[C@H]6[C@H](O)[C@@H](OC)[C@@H](O[C@H]7[C@H](O)[C@@H](OC)[C@@H](O[C@H]8[C@H](O)[C@@H](OC)[C@@H](O[C@H]1[C@H](O)[C@H]2OC)O[C@@H]8COC)O[C@@H]7COC)O[C@@H]6COC)O[C@@H]5COC)O[C@@H]4COC)O[C@@H]3COC [Heptakis(2,6-di-O-methyl)-beta cyclodextrin] |  |  |  |  |  | 13 | 9 | 1 |  |  |  |  |  |  |  | only a small, non-significant, reduction
3 | COC[C@H]1O[C@H]2O[C@H]3[C@H](OC)[C@@H](OC)[C@H](O[C@H]4[C@H](OC)[C@@H](OC)[C@H](O[C@H]5[C@H](OC)[C@@H](OC)[C@H](O[C@H]6[C@H](OC)[C@@H](OC)[C@H](O[C@H]7[C@H](OC)[C@@H](OC)[C@H](O[C@H]8[C@H](OC)[C@@H](OC)[C@H](O[C@H]9[C@H](OC)[C@@H](OC)[C@H](O[C@H]1[C@H](OC)[C@H]2OC)O[C@@H]9COC)O[C@@H]8COC)O[C@@H]7COC)O[C@@H]6COC)O[C@@H]5COC)O[C@@H]4COC)O[C@@H]3COC [Octakis(2,3,6-tri-O-methyl)-gamma cyclodextrin] |  |  |  |  |  | 13 | 11 | 0 |  |  |  |  |  |  |  | only a small, non-significant, reduction
4 | O=C([O-])CCSC[C@H]1O[C@@H]2O[C@H]3[C@H](O)[C@@H](O)[C@@H](O[C@H]4[C@H](O)[C@@H](O)[C@@H](O[C@H]5[C@H](O)[C@@H](O)[C@@H](O[C@H]6[C@H](O)[C@@H](O)[C@@H](O[C@H]7[C@H](O)[C@@H](O)[C@@H](O[C@H]1[C@H](O)[C@H]2O)O[C@@H]7CSCCC(=O)[O-])O[C@@H]6CSCCC(=O)[O-])O[C@@H]5CSCCC(=O)[O-])O[C@@H]4CSCCC(=O)[O-])O[C@@H]3CSCCC(=O)[O-].[Na+].[Na+].[Na+].[Na+].[Na+].[Na+] [Sualfadex sodium, 6A,6B,6C,6D,6E,7F-Hexakis-S-(2-carboxyethyl)-6A,6B,6C,6D,6E,6F-hexathio-alpha-cyclodextrin sodium] | 0.016 mg/mL | 0.028 mg/mL | 0.051 mg/mL | improved motoric activity |  | 4 | 16 | 4 | *** (*** p<0.001) |  |  |  |  |  |  | significant cholesterol-accumulation hindering activity; also recorded: very strong reduction

Now from value to compound, other results behind:

Row | Dissolved cholesterol concentration ([2]; CD concentration 5 w/w %) | Dissolved cholesterol concentration ([2]; CD concentration 10 w/w %) | Dissolved cholesterol concentration ([2]; CD concentration 15 w/w %) | Compound | Motoric activity of the test animals [1] | Reduction in U18666A induced cholesterol accumulation in the brain ([3]; 0.05%, sodium salt) | Heavy staining (number of larvae) [3, 5] | Light staining (number of larvae) [3, 5] | No staining (number of larvae) [3, 5] | Different from placebo ([3]; dose tested 0.05%) | Ototoxicity [4] | Reduction in U18666A induced cholesterol accumulation in the brain ([3]; 0.5%) | Heavy staining (number of larvae) [3, 6] | Light staining (number of larvae) [3, 6] | No staining (number of larvae) [3, 6] | Different from placebo ([3]; dose tested 0.5%) | Reduction in U18666A induced cholesterol accumulation in the brain ([3]; 0.05%)
5 | 0.062 mg/mL | 0.092 mg/mL | 0.246 mg/mL | 6A,6B,6C,6D,6E,7F,6G-Heptakis-S-(2-carboxyethyl)-6A,6B,6C,6D,6E,6F,6G-heptathio-beta-cyclodextrin sodium salt [Subetadex sodium] | improved motoric activity | significant cholesterol-accumulation hindering activity; also recorded: very strong reduction | 5 | 15 | 4 | *** (*** p<0.001) |  |  |  |  |  |  | 
6 | 0.056 mg/mL | 0.062 mg/mL | 0.150 mg/mL | O=C([O-])CCSC[C@H]1O[C@@H]2O[C@H]3[C@H](O)[C@@H](O)[C@@H](O[C@H]4[C@H](O)[C@@H](O)[C@@H](O[C@H]5[C@H](O)[C@@H](O)[C@@H](O[C@H]6[C@H](O)[C@@H](O)[C@@H](O[C@H]7[C@H](O)[C@@H](O)[C@@H](O[C@H]8[C@H](O)[C@@H](O)[C@@H](O[C@H]9[C@H](O)C(O)[C@@H](O[C@H]1[C@H](O)[C@H]2O)O[C@@H]9CSCCC(=O)[O-])O[C@@H]8CSCCC(=O)[O-])O[C@@H]7CSCCC(=O)[O-])O[C@@H]6CSCCC(=O)[O-])O[C@@H]5CSCCC(=O)[O-])O[C@@H]4CSCCC(=O)[O-])O[C@@H]3CSCCC(=O)[O-].[Na+].[Na+].[Na+].[Na+].[Na+].[Na+].[Na+].[Na+] (stereo partly drawn) [Sugammadex sodium, 6A,6B,6C,6D,6E,7F,6G,6H-Octakis-S-(2-carboxyethyl)-6A,6B,6C,6D,6E,6F,6G,6H-octathio-gamma-cyclodextrin sodium salt] | improved motoric activity | significant cholesterol-accumulation hindering activity; also recorded: very strong reduction | 4 | 15 | 5 | *** (*** p<0.001) |  |  |  |  |  |  | 
